The text below walks through data of patent US20230167073A1 (Teijin Pharma Limited, priority 2020, published 2023).

The target in this test is T1, Human TRPC6 (Homo sapiens, UniProt Q9Y210).
T1 construct: expressed in transfected cells
T1 sequence (Q9Y210 1-931): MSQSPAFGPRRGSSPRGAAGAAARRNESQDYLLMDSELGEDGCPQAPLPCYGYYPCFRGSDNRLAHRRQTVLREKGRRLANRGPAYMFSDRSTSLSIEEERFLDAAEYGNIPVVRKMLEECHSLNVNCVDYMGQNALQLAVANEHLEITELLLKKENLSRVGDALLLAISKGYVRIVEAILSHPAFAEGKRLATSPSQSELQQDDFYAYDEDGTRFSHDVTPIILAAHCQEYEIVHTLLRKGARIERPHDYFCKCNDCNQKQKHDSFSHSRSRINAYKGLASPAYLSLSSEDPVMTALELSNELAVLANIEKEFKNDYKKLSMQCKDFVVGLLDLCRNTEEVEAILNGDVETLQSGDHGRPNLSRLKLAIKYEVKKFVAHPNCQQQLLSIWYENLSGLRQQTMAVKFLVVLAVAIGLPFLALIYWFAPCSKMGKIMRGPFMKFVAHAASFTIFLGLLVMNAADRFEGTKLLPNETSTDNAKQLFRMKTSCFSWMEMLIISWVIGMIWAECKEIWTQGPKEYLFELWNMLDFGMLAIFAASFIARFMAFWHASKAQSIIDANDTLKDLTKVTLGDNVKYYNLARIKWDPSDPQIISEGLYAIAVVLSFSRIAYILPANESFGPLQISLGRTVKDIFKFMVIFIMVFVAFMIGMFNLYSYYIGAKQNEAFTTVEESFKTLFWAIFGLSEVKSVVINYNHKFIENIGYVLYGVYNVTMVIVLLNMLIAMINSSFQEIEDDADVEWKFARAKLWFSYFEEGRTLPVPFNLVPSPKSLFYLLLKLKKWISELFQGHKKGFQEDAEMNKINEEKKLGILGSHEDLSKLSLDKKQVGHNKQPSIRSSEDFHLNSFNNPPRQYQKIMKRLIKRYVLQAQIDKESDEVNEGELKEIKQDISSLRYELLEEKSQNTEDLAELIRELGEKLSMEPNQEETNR
The test can be described thus: Evaluation of TRPC6 channel inhibitory activity (1), FLIPR Calcium 5 Assay Kit, OAG stimulation (Compound Nos. 1-1293). The following applies: Human TRPC6 stably-expressing cells, OAG 30 μM, FLIPR Calcium 5 Assay Kit; read-out: Inhibitory activity (pIC50 class) (converted). It counts as cell-based. The essentials:
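Calcium influx read by FLIPR fluorescence in cells stably expressing human TRPC6, dye-loaded 30 min. Compounds preincubated 20 min, then OAG stimulation at 30 μM final. Inhibition fitted by four-parameter logistic regression to give pIC50, reported as +/++/+++ categories.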

For `Cn1nc(C2CC2)cc1Oc1cc(C#N)ccc1-c1ccc(NC(=O)C2CCNCC2)cn1` [compound 781, N-[6-[4-cyano-2-(5-cyclopropyl-2-methylpyrazol-3-yl)oxyphenyl]pyridin-3-yl]piperidine-4-carboxamide], the IC50 is over 1 µM. For `CN(C(=O)C1CCNCC1)c1ccc(-c2ccc(C#N)cc2Oc2cc(C3CC3)nn2C)nc1` [compound 782, N-[6-[4-cyano-2-(5-cyclopropyl-2-methylpyrazol-3-yl)oxyphenyl]pyridin-3-yl]-N-methylpiperidine-4-carboxamide], the IC50 is over 1 µM. For `Cn1nc(C2CC2)cc1Oc1cc(C#N)ccc1-c1ccc(CC(=O)N2CCNCC2)cn1` [compound 783, 3-(5-cyclopropyl-2-methylpyrazol-3-yl)oxy-4-[5-(2-oxo-2-piperazin-1-ylethyl)pyridin-2-yl]benzonitrile], the IC50 is over 1 µM. Turning to `CN(C)CCOc1ccc(-c2ccc(C#N)cc2Oc2cc(C3CC3)nn2C)nn1` [compound 784, 3-(5-cyclopropyl-2-methylpyrazol-3-yl)oxy-4-[6-[2-(dimethylamino)ethoxy]pyridazin-3-yl]benzonitrile], the IC50 was over 1 µM. For `N#Cc1ccc(-c2ccc(CCN)cc2)c(Oc2sc(N3CCCCC3)nc2C(F)(F)F)c1` [compound 785, 4-[4-(2-aminoethyl)phenyl]-3-[[2-piperidin-1-yl-4(trifluoromethyl)-1,3-thiazol-5-yl]oxy]benzonitrile], the IC50 is 0.01 to 1 µM. With `CN(CC(F)F)c1cc(Oc2cc(C#N)ccc2-c2ncc(CCN)cn2)n(C)n1` [compound 786, 4-[5-(2-aminoethyl)pyrimidin-2-yl]-3-[5-[2,2-difluoroethyl(methyl)amino]-2-methylpyrazol-3-yl]oxybenzonitrile], the IC50 is under 0.01 µM. Regarding `CN(CC(F)(F)F)c1cc(Oc2cc(C#N)ccc2-c2ncc(CCN)cn2)n(C)n1` [compound 787, 4-[5-(2-aminoethyl)pyrimidin-2-yl]-3-[2-methyl-5-[methyl(2,2,2-trifluoroethyl)amino]pyrazol-3-yl]oxybenzonitrile], the IC50 is under 0.01 µM. The same measure for `Cc1nc(Oc2cc(C#N)ccc2-c2ncc(CN)cn2)cc(OC2CCC2)n1` [compound 788, 4-[5-(aminomethyl)pyrimidin-2-yl]-3-(6-cyclobutyloxy-2-methylpyrimidin-4-yl)oxybenzonitrile]: over 1 µM; for `Cc1nc(Oc2cc(C#N)ccc2-c2ncc(CN)cn2)cc(N2CCC2)n1` [compound 789, 4-[5-(aminomethyl)pyrimidin-2-yl]-3-[6-(azetidin-1-yl)-2-methylpyrimidin-4-yl]oxybenzonitrile]: 0.01 to 1 µM; for `CCN(C)c1cc(Oc2cc(C#N)ccc2-c2ncc(CN)cn2)nc(C)n1` [compound 790, 4-[5-(aminomethyl)pyrimidin-2-yl]-3-[6-[ethyl(methyl)amino]-2-methylpyrimidin-4-yl]oxybenzonitrile]: 0.01 to 1 µM.

Regarding `CCN(CC)c1cc(Oc2cc(C#N)ccc2-c2ncc(CN)cn2)nc(C)n1` [compound 791, 4-[5-(aminomethyl)pyrimidin-2-yl]-3-[6-(diethylamino)-2-methylpyrimidin-4-yl]oxybenzonitrile], the IC50 was 0.01 to 1 µM. In the case of `Cc1nc(Oc2cc(C#N)ccc2-c2ncc(CN)cn2)cc(N(C)C(C)C)n1` [compound 792, 4-[5-(aminomethyl)pyrimidin-2-yl]-3-[2-methyl-6-[methyl(propan-2-yl)amino]pyrimidin-4-yl]oxybenzonitrile], the IC50 was 0.01 to 1 µM.

Take `Cc1nc(Oc2cc(C#N)ccc2-c2ncc(CN)cn2)cc(N2CC(F)C2)n1` [compound 793, 4-[5-(aminomethyl)pyrimidin-2-yl]-3-[6-(3-fluoroazetidin-1-yl)-2-methylpyrimidin-4-yl]oxybenzonitrile]: the IC50 is over 1 µM. Regarding `Cc1nc(Oc2cc(C#N)ccc2-c2ncc(CN)cn2)cc(N2CCC[C@H]2C)n1` [compound 794, 4-[5-(aminomethyl)pyrimidin-2-yl]-3-[2-methyl-6-[(2R)-2-methylpyrrolidin-1-yl]pyrimidin-4-yl]oxybenzonitrile], the IC50 is 0.01 to 1 µM.
